Patent US9388405B2, “Method for identifying a subpopulation of mammalian cells with distinctive ribosome translation profiles” (priority 2009, dated 2016)

How the values were obtained:
Type in all cases: cell-based, human
[1] = system: MCF7 CMV-fLuc subclones #44 and #48; test: PKC activator dose response, cap-dependent translation (fLuc); settings: single-Toxin
Description: Following 6 hr exposure to the Single-Toxin TPA assay, cells were lysed and fLuc protein activity measured using a standard microplate reader assay. The raw values were averaged and expressed as the ratio of treated to untreated samples (Fold Induction).
Dashed lines represent translational response levels produced by a 100 nM TPA Single-Toxin assay. The Bryostatin 1 concentrations (top panel) encompassed the TPA concentrations used in FIG. 27A. […] The Bryostatin 2 dose response curve (bottom panel) employed higher drug concentrations (the maximal tested dose was 5× the largest TPA and Bryostatin 1 amounts). At the highest tested dose (2.5 uM), Bryostatin 2 produced fLuc activity consistent with the level observed with 100 nM TPA.
In addition to measuring cap-dependent and cap-independent translational effects, Class-specific translational activity and toxin-defined actions, the previously described materials and methods allow for a variety of applications designed to detect and characterize agents and processes that regulate ribosome activity. In this example, comparative dose response assays were used to detect cap-dependent and cap-independent translational regulation in MCF7 cells. The basis for this application was the observation that distinct translational responses are produced by compounds at different doses. When an assortment of compounds act on a common molecular target, they can be grouped into a genus of related drugs. By comparing individual species of a compound genus over a defined dose range, differences in translational regulation can be defined. Furthermore, these translational differences can often be linked to biological differences.
In this example (FIG. 27), the three PKC activators produced similar dose response trends in cap-dependent assays. […] However, macrolide lactones produced translational increases that were generally 60-70% of the TPA translational response (FIG. 27B). In fact, a 25 fold increase in Bryostatin 2 concentration (2.5 uM) was needed to produce a translational magnitude similar to the 100 nM TPA assay (FIG. 27B).

[2] = system: MCF7 mTRdm-fLuc subclones #8, #27, and #45; test: PKC activator dose response, cap-independent TR translation (fLuc); settings: single-Toxin
Description: Following 6 hr culture with a TPA single-Toxin assay, cells were lysed and fLuc protein activity measured using a standard microplate reader assay. The plate reader values were averaged and expressed as the ratio of treated to untreated samples (Fold Induction).
As with FIG. 27B, dashed lines represent translational response levels achieved by the 100 nM TPA assay in each cell line. […] A further difference between the cap-dependent and cap-independent assays was the observation that increased Bryostatin 2 concentrations (5× the maximal TPA dose) never produced fLUC activity equivalent to the 100 nM TPA assay. Thus, the Toxin Assay procedure can detect a statistically significant difference in cap-dependent and cap-independent translation in compounds that activate PKC activity.
In the cap-independent assays, a similar dose response trend was observed over a 1 nM to 250 nM range with a translational peak at a 100 nM dose. However, the magnitude of the Bryostatin increases were generally 30% of 100 nM TPA response.

[3] = system: HEK293 CMV-fLUC #3, hTRdm-fLUC #13 and mTRdm-fLUC #45 subclones; test: Translation elongation inhibitor single-Toxin and two-Toxin (100 nM TPA) dose response; settings: for low dose sufficient to reduce reporter protein levels below untreated control cells: HEK293 CMV-fLUC #3 and mTRdm-fLUC #45 subclones; for reporter protein level versus untreated control: 25 uM inhibitor + 100 nM TPA, HEK293 mTRdm-fLUC #45 subclone
Description: At sufficiently large doses, these inhibitors immediately stop protein translation, and the resulting protein turnover reduces reporter protein levels below untreated cell levels (<100% control).
For the HEK293 CMV-fLUC #3 (top panel) and mTRdm-fLUC #45 (bottom panel) subclones, anisomycin and emetine antagonized the TPA response at the lowest tested dose (10 nM) and reduced reporter protein levels 50-300% compared to the TPA single-Toxin assay. This contrasted with puromycin, which required a 250 nM concentration (25×) to initially reduce protein synthesis below the TPA Single-Toxin assay level in all three cell lines. […] For example, the CMV-fLUC #3 subclone required a 2.5 uM puromycin dose to correlate with the other inhibitors, which contrasted with hTRdm-fLUC #13 and mTRdm-fLUC #45 subclones which needed a 25 uM puromycin concentration (a 10× increase).
In this example (FIG. 33), single-Toxin and two-Toxin dose responses were used to define translational responses associated with translation inhibitors. Inhibitors of protein biosynthesis generally act by interfering with translational initiation (assembly of the components or structures required for translation) or elongation (enzymatic process of peptide synthesis and chain movement within the ribosome). A variety of translational inhibitors exist that affect each of these stages. Due to the fact that cap-dependent and cap-independent translation display distinct translational initiation mechanisms, this example focused on translational inhibitors associated with peptide elongation. Since the majority of these enzymatic processes are common to cap-dependent and cap-independent translation, any significant differences in chain elongation reflect differences in peptide synthesis.
A dose response single-Toxin assay was used to examine translation regulation in HEK293 cells (FIG. 33A). […] For example, translation inhibition stops reporter protein production, and protein turnover reduces reporter activity below the basal level. In this example, a 250 nM concentration of each inhibitor was sufficient to reduce protein synthesis below control cell levels in cap-dependent and cap-independent assays (FIG. 33A). Furthermore, any dose above 2.5 uM produced only minimal additional reductions in reporter protein activity supporting the theory that translation in these assays had ceased.
In a second effort, a two-Toxin dose response assay was performed by varying the concentration of the elongation inhibitors in combination with the 100 nM TPA activator (FIG. 33B). This combinatorial assay was designed to examine protein synthesis in stimulated cells preferentially translating the TR transcript. As in the single-Toxin assays, cap-dependent translation was arrested by 2.5 uM puromycin (top panel) which contrasted with the cap-independent assays where a 10× increase in puromycin concentration (25 uM) was needed to prevent new protein synthesis. However even at this highest tested dose, immediate translation inhibition was not observed in any cell line (FIG. 33C).

[4] = system: MCF7 CMV-fLuc subclone #65; test: Topoisomerase 1 inhibitor single-Toxin and two-Toxin (100 nM TPA) dose response, cap-dependent; settings: 10 nM to 10 uM; for dose at peak of fLuc protein expression: 6 hr; for dose at peak of fLuc protein expression / effect on TPA-specific translational response: cap-dependent; for effect on TPA-specific translational response: two-Toxin with constant 100 nM TPA
Description: FIG. 28A illustrates a dose response assay of the MCF7 CMV-fLuc subclone #65 treated with varying doses (10 nM to 10 uM range) of the following Topoisomerase 1 inhibitors: camptothecin, topotecan, irinotecan, and rubitecan. Following a 6 hr incubation in a single-Toxin assay, cells were lysed and fLuc protein activity measured using a standard microplate reader assay. The plate reader values were averaged and expressed as the ratio of treated to untreated samples (Fold Induction). The dashed line represents the level of translational response in untreated cell samples.
FIG. 28B illustrates the use of a Combinatorial Assay to examine the effects of Topoisomerase 1 inhibitors on cap-dependent translation. A series of dose response assays were performed on the MCF7 CMV-fLuc subclone #65 using varying doses of the Topoisomerase 1 inhibitors (10 nM to 10 uM range) in a Two-Toxin assay with a constant 100 nM TPA dose. The plate reader values were averaged and expressed as the ratio of treated to untreated samples (Fold Induction). The dashed line represents the level of translational response in untreated samples.
FIG. 28A illustrates a cap-dependent dose response assay of MCF7 cells treated with varying dosages (10 nM to 10 uM range) of the following TopoI inhibitors: camptothecin, topotecan, irinotecan, and rubitecan. […] While the altered irinotecan response might have been predicted based on its metabolic requirements, the lack of topotecan action on cap-dependent translation in the single-Toxin assays was unexpected.
Since similar doses inhibited translation in the single-Toxin assays (FIG. 28A), this effect might have represented a direct effect on translation.

[5] = system: MCF7 mTRdm-fLuc subclone #27; test: Topoisomerase 1 inhibitor single-Toxin and two-Toxin (100 nM TPA) dose response, cap-independent; settings: 10 nM to 10 uM; for effect on cap-independent translation: single-Toxin; for effect on TPA activity: two-Toxin with 100 nM TPA
Description: FIG. 28C illustrates the use of single-Toxin Assays to measure the effects of Topoisomerase 1 inhibitors on cap-independent translation in MCF7 cells. Triplicate samples of the MCF7 mTRdm-fLuc subclone #27 were treated with varying concentrations (10 nM to 10 uM range) of the Topoisomerase 1 inhibitors; camptothecin, rubitecan, irinotecan and topotecan. The plate reader values were averaged and expressed as the ratio of treated to untreated samples (Fold Induction). The dashed line represents the level of translational response in untreated controls.
FIG. 28D illustrates the use of a two-Toxin Combinatorial Assay on the MCF7 mTRdm-fLuc subclone #27 treated with 100 nM TPA plus varying doses (10 nM to 10 uM range) of the Topoisomerase 1 inhibitors. The plate reader values were averaged and expressed as the ratio of treated to untreated samples (Fold Induction). The dashed line represents the level of translational response in untreated samples. All four inhibitors acted synergistically with TPA to increase protein activity in the 10 nM two-Toxin assay.
FIG. 28D illustrates the use of a two-Toxin dose response assay using varying dosages of the TopoI inhibitors in combination with the 100 nM TPA translational activator. All four inhibitors acted synergistically with TPA at low doses to increase protein translation. At concentrations higher than 100 nM, camptothecin, rubitecan, and topotecan antagonized the TPA response and reduced the fLUC expression.

In the case of `CCC/C=C/C=C/C(=O)O[C@H]1/C(=C/C(=O)OC)C[C@H]2C[C@H]([C@@H](C)O)OC(=O)C[C@H](O)C[C@@H]3C[C@H](OC(C)=O)C(C)(C)[C@](O)(C[C@@H]4C/C(=C/C(=O)OC)C[C@H](/C=C/C(C)(C)[C@]1(O)O2)O4)O3` [Bryostatin 1], the “magnitude of reporter activity versus 100 nM TPA assay” value ([1]; 500 pM to 500 nM) was “never reached the fLuc activity level produced by the 100 nM TPA assay”, the “dose giving maximal reporter level (translational peak)” value ([1]; 6 hr) was 100 nM and the “magnitude of translational response versus 100 nM TPA tests” value [2] was “never reached the fLuc activity produced in 100 nM TPA tests”. The “dose giving peak fLuc protein activity” value ([2]; 6 hr) was 100 nM.

With `COc1ccc(C[C@H]2NC[C@H](O)[C@H]2OC(C)=O)cc1` [anisomycin] the “reduction of reporter protein levels compared to the TPA single-Toxin assay” value ([3]; 10 nM inhibitor + 100 nM TPA, CMV-fLUC #3 and mTRdm-fLUC #45) was 50-300% and the “low dose sufficient to reduce reporter protein levels below untreated control cells” value ([3]; single-Toxin) was ~25 nM.

`CC[C@@]1(O)C(=O)OCc2c1cc1n(c2=O)Cc2cc3ccccc3nc2-1` [camptothecin] was tested, and the “dose at peak of fLuc protein expression” value ([4]; single-Toxin) was ~1 µM, the “effect on TPA-specific translational response” value [4] was “acted synergistically with TPA to increase fLUC protein activity up to a 1 uM dose” and the “effect on cap-independent translation” value [5] was “exhibited reduced fLUC activity at higher doses (5 uM and 10 uM)”. For the same compound, the “effect on TPA activity” value [5] was “antagonized the TPA activity and exhibited reduced fLUC expression”.

In the case of `C[C@@H]1C[C@@H]([C@H](O)CC2CC(=O)NC(=O)C2)C(=O)[C@@H](C)C1` [cycloheximide], the “reporter protein level versus untreated control” value [3] was “little or no reduction below untreated control cell levels”.

For `CC[C@H]1CN2CCc3cc(OC)c(OC)cc3[C@@H]2C[C@@H]1C[C@H]1NCCc2cc(OC)c(OC)cc21` [emetine], the “reporter protein level versus untreated control” value [3] was “little or no reduction below untreated control cell levels” and the “low dose sufficient to reduce reporter protein levels below untreated control cells” value ([3]; single-Toxin) was 100 nM.

For `CCc1c2c(nc3ccc(OC(=O)N4CCC(N5CCCCC5)CC4)cc13)-c1cc3c(c(=O)n1C2)COC(=O)[C@]3(O)CC` [irinotecan], the “effect on cap-dependent translation” value ([4]; single-Toxin) was “neither topotecan or irinotecan significantly altered cap-dependent translation”, the “effect on TPA-specific translational response” value [4] was “did not produce any significant change in the TPA-specific translational response” and the “effect on cap-independent translation” value [5] was “constant amount of fLUC activity at all tested concentrations”. For the same compound, the “effect on TPA activity” value [5] was “displayed synergistic action with TPA and enhanced fLUC activity at all tested doses”.

`COc1ccc(C[C@H](N)C(=O)N[C@H]2[C@@H](O)[C@H](n3cnc4c(N(C)C)ncnc43)O[C@@H]2CO)cc1` [puromycin] was tested, and the “reporter protein level versus untreated control” value [3] was “little or no reduction below untreated control cell levels”, the “concentration required to reduce reporter protein levels to levels comparable to the other three inhibitors” value ([3]; single-Toxin, cap-dependent and cap-independent) was 2.5 µM and the “dose required to correlate with the other inhibitors (translation arrested)” value ([3]; two-Toxin with 100 nM TPA, CMV-fLUC #3 subclone, cap-dependent) was 2.5 µM. For the same compound, the “concentration required to initially reduce protein synthesis below the TPA Single-Toxin assay level” value ([3]; two-Toxin with 100 nM TPA, all three cell lines) was 250 nM and the “concentration needed to correlate with the other inhibitors (prevent new protein synthesis)” value ([3]; two-Toxin with 100 nM TPA, hTRdm-fLUC #13 and mTRdm-fLUC #45, cap-independent) was 25 µM.

In the case of `CC[C@@]1(O)C(=O)OCc2c1cc1n(c2=O)Cc2cc3c([N+](=O)[O-])cccc3nc2-1` [rubitecan], the “dose at peak of fLuc protein expression” value ([4]; single-Toxin) was ~1 µM, the “effect on TPA-specific translational response” value [4] was “acted synergistically with TPA to increase fLUC protein activity up to a 1 uM dose” and the “effect on cap-independent translation” value [5] was “exhibited reduced fLUC activity at higher doses (5 uM and 10 uM)”. For the same compound, the “effect on TPA activity” value [5] was “antagonized the TPA activity and exhibited reduced fLUC expression”.
